Target: human FXR (NR1H4) (Homo sapiens (Human), UniProt Q96RI1)
Test: Human FXR (NR1H4) Assay (Gal4 promoter driven luciferase reporter, Indigo Bioscience kit IB00601)
Type: cell-based
Conditions: for Efficacy (%): efficacy normalized to CDCA set as 100%; for EC50: potency ranges
Text: Assays Human FXR (NR1H4) Assay
Determination of a ligand mediated Gal4 promoter driven transactivation quantify ligand binding mediated activation of FXR. FXR Reporter Assay kit purchased from Indigo Bioscience (Catalogue number: IB00601) to determine the potency and efficacy of compound developed by Enanta that can induce FXR activation. The principle application of this reporter assay system is to quantify functional activity of human FXR. The assay utilizes non-human mammalian cells, CHO (Chinese hamster ovary) cells engineered to express human NR1H4 protein (referred to as FXR). Reporter cells also incorporate the cDNA encoding beetle luciferase which catalyzes the substrates and yields photon emission. Luminescence intensity of the reaction is quantified using a plate-reading luminometer, Envision. Reporter Cells include the luciferase reporter gene functionally linked to an FXR responsive promoter. Thus, quantifying changes in luciferase expression in the treated reporter cells provides a sensitive surrogate measure of the changes in FXR activity. […] The assay is according to the manufacturer's instructions. In brief, the assay was performed in white, 96 well plates using final volume of 100 ul containing cells with different doses of compounds. Retrieve Reporter Cells from −80° C. storage. Perform a rapid thaw of the frozen cells by transferring a 10 ml volume of 37° C. cell recovery medium into the tube of frozen cells. Recap the tube of Reporter Cells and immediately place it in a 37° C. water bath for 5-10 minutes. Retrieve the tube of Reporter Cell Suspension from the water bath. Sanitize the outside surface of the tube with a 70% alcohol swab, and then transfer it into the cell culture hood. Dispense 90 μl of cell suspension into each well of the 96-well Assay Plate. Transfer the plate into 37° C. incubator, allowing the cells adherent to the bottom of the well. Dilute compounds in Dilution Plate (DP), and administrate to cells at Assay Plate (AP). DMSO content of the samples was kept at 0.2%. Cells were incubated for additional 22 hours before luciferase activities were measured. Thirty minutes before intending to quantify FXR activity, remove Detection Substrate and Detection Buffer from the refrigerator and place them in a low-light area so that they may equilibrate to room temperature. Remove the plate's lid and discard all media contents by ejecting it into an appropriate waste container. Gently tap the inverted plate onto a clean absorbent paper towel to remove residual droplets. Cells will remain tightly adhered to well bottoms. Add 100 μl of luciferase detection reagent to each well of the assay plate. Allow the assay plate to rest at room temperature for at least 5 minutes following the addition of LDR. Set the instrument (Envision) to perform a single 5 second “plate shake” prior to reading the first assay well. Read time may be 0.5 second (500 mSec) per well.

Chain of human FXR (NR1H4) (Q96RI1 whole entry, the tested form may be a part): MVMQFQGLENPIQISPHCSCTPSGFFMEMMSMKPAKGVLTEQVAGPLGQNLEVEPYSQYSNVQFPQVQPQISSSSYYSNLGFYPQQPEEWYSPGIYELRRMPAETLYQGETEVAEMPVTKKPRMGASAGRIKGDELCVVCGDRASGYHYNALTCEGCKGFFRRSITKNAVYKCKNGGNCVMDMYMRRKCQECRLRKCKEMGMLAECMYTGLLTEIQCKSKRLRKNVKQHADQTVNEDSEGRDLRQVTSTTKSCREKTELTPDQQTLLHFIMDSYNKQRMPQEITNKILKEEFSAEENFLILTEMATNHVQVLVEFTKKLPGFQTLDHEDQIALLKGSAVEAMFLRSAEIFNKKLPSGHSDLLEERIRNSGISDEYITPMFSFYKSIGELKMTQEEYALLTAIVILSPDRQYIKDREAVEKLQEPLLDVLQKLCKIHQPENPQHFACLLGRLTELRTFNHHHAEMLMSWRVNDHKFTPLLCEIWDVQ

Compound	Efficacy (%)	EC50
CC[C@H]1[C@@H](O)[C@@H]2[C@H](CC[C@]3(C)[C@@H]([C@H](C)CCNC(=O)NS(=O)(=O)c4ccc(-c5csc(C)n5)cc4)CC[C@@H]23)[C@@]2(C)CC[C@@H](O)C[C@@H]12 [Example 71]	419%	100 to 1000 nM
CC[C@H]1[C@@H](O)[C@@H]2[C@H](CC[C@]3(C)[C@@H]([C@H](C)CCCCNS(=O)(=O)C(C)(C)C)CC[C@@H]23)[C@@]2(C)CC[C@@H](O)C[C@@H]12 [Example 136]	159%	1000 to 10000 nM
CC[C@H]1[C@@H](O)[C@@H]2[C@H](CC[C@]3(C)[C@@H]([C@H](C)CCCNS(=O)(=O)C(C)C)CC[C@@H]23)[C@@]2(C)CC[C@@H](O)C[C@@H]12 [Example 11]	267%	1000 to 10000 nM
CC[C@H]1[C@@H](O)[C@@H]2[C@H](CC[C@]3(C)[C@@H]([C@H](C)CNC(=O)NS(=O)(=O)c4ccc5c(c4)OCO5)CC[C@@H]23)[C@@]2(C)CC[C@@H](O)C[C@@H]12 [Example 117]	305%	< 100 nM
CC[C@H]1[C@@H](O)[C@@H]2[C@H](CC[C@]3(C)[C@@H]([C@H](C)CNC(=O)NS(=O)(=O)c4ccccc4)CC[C@@H]23)[C@@]2(C)CC[C@@H](O)C[C@@H]12 [Example 31]	305%	100 to 1000 nM
CC[C@H]1[C@@H](O)[C@@H]2[C@H](CC[C@]3(C)[C@@H]([C@H](C)CCNC(=O)NS(=O)(=O)N4CCCCCC4)CC[C@@H]23)[C@@]2(C)CC[C@@H](O)C[C@@H]12 [Example 47]	361%	< 100 nM
CC[C@H]1[C@@H](O)[C@@H]2[C@H](CC[C@]3(C)[C@@H]([C@H](C)CCNC(=O)NS(=O)(=O)c4cccc(N(C)C)c4)CC[C@@H]23)[C@@]2(C)CC[C@@H](O)C[C@@H]12 [Example 112]	287%	< 100 nM
CC[C@H]1[C@@H](O)[C@@H]2[C@H](CC[C@]3(C)[C@@H]([C@H](C)CCNC(=O)NS(=O)(=O)c4ccc(OC)cc4)CC[C@@H]23)[C@@]2(C)CC[C@@H](O)C[C@@H]12 [Example 15]	337%	< 100 nM
CC[C@H]1[C@@H](O)[C@@H]2[C@H](CC[C@]3(C)[C@@H]([C@H](C)CCCNS(=O)(=O)[O-])CC[C@@H]23)[C@@]2(C)CC[C@@H](O)C[C@@H]12.[Na+] [Example 135]	4%	1000 to 10000 nM
CC[C@H]1[C@@H](O)[C@@H]2[C@H](CC[C@]3(C)[C@@H]([C@H](C)CCNC(=O)NS(=O)(=O)c4cccc(-c5nc(C)cs5)c4)CC[C@@H]23)[C@@]2(C)CC[C@@H](O)C[C@@H]12 [Example 80]	295%	100 to 1000 nM
CC[C@H]1[C@@H](O)[C@@H]2[C@H](CC[C@]3(C)[C@@H]([C@H](C)CCNC(=O)NS(=O)(=O)c4ccc5c(c4)OCO5)CC[C@@H]23)[C@@]2(C)CC[C@@H](O)C[C@@H]12 [Example 23]	488%	< 100 nM
CC[C@H]1[C@@H](O)[C@@H]2[C@H](CC[C@]3(C)[C@@H]([C@H](C)CCNC(=O)NS(=O)(=O)C4CCCC4)CC[C@@H]23)[C@@]2(C)CC[C@@H](O)C[C@@H]12 [Example 27]	275%	< 100 nM
CC[C@H]1[C@@H](O)[C@@H]2[C@H](CC[C@]3(C)[C@@H]([C@H](C)CCNC(=O)NS(=O)(=O)C4CCC(F)(F)CC4)CC[C@@H]23)[C@@]2(C)CC[C@@H](O)C[C@@H]12 [Example 89]	351%	< 100 nM
CC[C@H]1[C@@H](O)[C@@H]2[C@H](CC[C@]3(C)[C@@H]([C@H](C)CCNC(=O)NS(=O)(=O)c4cnn(CC)c4)CC[C@@H]23)[C@@]2(C)CC[C@@H](O)C[C@@H]12 [Example 109]	219%	100 to 1000 nM
CC[C@H]1[C@@H](O)[C@@H]2[C@H](CC[C@]3(C)[C@@H]([C@H](C)CCNC(=O)NS(=O)(=O)N(C)C)CC[C@@H]23)[C@@]2(C)CC[C@@H](O)C[C@@H]12 [Example 91]	399%	< 100 nM
CC[C@H]1[C@@H](O)[C@@H]2[C@H](CC[C@]3(C)[C@@H]([C@H](C)CCNC(=O)NS(=O)(=O)c4nccs4)CC[C@@H]23)[C@@]2(C)CC[C@@H](O)C[C@@H]12 [Example 100]	364%	1000 to 10000 nM
CC[C@H]1[C@@H](O)[C@@H]2[C@H](CC[C@]3(C)[C@@H]([C@H](C)CCNC(=O)NS(=O)(=O)C4CCC(C(C)(C)C)CC4)CC[C@@H]23)[C@@]2(C)CC[C@@H](O)C[C@@H]12 (stereo partly drawn) [Example 88]	378%	< 100 nM
CC[C@H]1[C@@H](O)[C@@H]2[C@H](CC[C@]3(C)[C@@H]([C@H](C)CCNC(=O)NS(=O)(=O)c4ccc(C(=O)OC)cc4)CC[C@@H]23)[C@@]2(C)CC[C@@H](O)C[C@@H]12 [Example 123]	271%	100 to 1000 nM
CC[C@H]1[C@@H](O)[C@@H]2[C@H](CC[C@]3(C)[C@@H]([C@H](C)CCNC(=O)NS(=O)(=O)c4ccccc4)CC[C@@H]23)[C@@]2(C)CC[C@@H](O)C[C@@H]12 [Example 4]	342%	< 100 nM
CC[C@H]1[C@@H](O)[C@@H]2[C@H](CC[C@]3(C)[C@@H]([C@H](C)CCNC(=O)NS(=O)(=O)c4ccc(C(=O)O)cc4)CC[C@@H]23)[C@@]2(C)CC[C@@H](O)C[C@@H]12 [Example 120]	198%	1000 to 10000 nM
CC[C@H]1[C@@H](O)[C@@H]2[C@H](CC[C@]3(C)[C@@H]([C@H](C)CCCNC(=O)NS(=O)(=O)C4CC4)CC[C@@H]23)[C@@]2(C)CC[C@@H](O)C[C@@H]12 [Example 20]	334%	100 to 1000 nM
CC[C@H]1[C@@H](O)[C@@H]2[C@H](CC[C@]3(C)[C@@H]([C@H](C)CCNC(=O)NS(=O)(=O)c4ccc5ccccc5c4)CC[C@@H]23)[C@@]2(C)CC[C@@H](O)C[C@@H]12 [Example 1]	337%	< 100 nM
CC[C@H]1[C@@H](O)[C@@H]2[C@H](CC[C@]3(C)[C@@H]([C@H](C)CCNS(=O)(=O)CCC(=O)O)CC[C@@H]23)[C@@]2(C)CC[C@@H](O)C[C@@H]12 [Example 141]	16%	1000 to 10000 nM
CC[C@H]1[C@@H](O)[C@@H]2[C@H](CC[C@]3(C)[C@@H]([C@H](C)CCNC(=O)NS(=O)(=O)c4ccc(C)c(C)c4)CC[C@@H]23)[C@@]2(C)CC[C@@H](O)C[C@@H]12 [Example 17]	357%	< 100 nM
CC[C@H]1[C@@H](O)[C@@H]2[C@H](CC[C@]3(C)[C@@H]([C@H](C)CCNS(=O)(=O)C(C)(C)C(=O)O)CC[C@@H]23)[C@@]2(C)CC[C@@H](O)C[C@@H]12 [Example 138]	2%	1000 to 10000 nM
CC[C@H]1[C@@H](O)[C@@H]2[C@H](CC[C@]3(C)[C@@H]([C@H](C)CCNC(=O)NS(=O)(=O)c4ccc(-c5ccno5)cc4C)CC[C@@H]23)[C@@]2(C)CC[C@@H](O)C[C@@H]12 [Example 72]	384%	100 to 1000 nM
CC[C@H]1[C@@H](O)[C@@H]2[C@H](CC[C@]3(C)[C@@H]([C@H](C)CCNC(=O)NS(=O)(=O)N4CCCCC4)CC[C@@H]23)[C@@]2(C)CC[C@@H](O)C[C@@H]12 [Example 39]	379%	< 100 nM
CC[C@H]1[C@@H](O)[C@@H]2[C@H](CC[C@]3(C)[C@@H]([C@H](C)CCNC(=O)NS(=O)(=O)N4C[C@@H](C)O[C@@H](C)C4)CC[C@@H]23)[C@@]2(C)CC[C@@H](O)C[C@@H]12 [Example 75]	323%	< 100 nM
CC[C@H]1[C@@H](O)[C@@H]2[C@H](CC[C@]3(C)[C@@H]([C@H](C)CCNC(=O)N(C)S(=O)(=O)c4ccccc4)CC[C@@H]23)[C@@]2(C)CC[C@@H](O)C[C@@H]12 [Example 56]	295%	100 to 1000 nM
CC[C@H]1[C@@H](O)[C@@H]2[C@H](CC[C@]3(C)[C@@H]([C@H](C)CCNC(=O)NS(=O)(=O)c4ccc(C(F)(F)F)cc4)CC[C@@H]23)[C@@]2(C)CC[C@@H](O)C[C@@H]12 [Example 14]	295%	100 to 1000 nM

Reference: patent US10208081B2, “Bile acid derivatives as FXR/TGR5 agonists and methods of use thereof” (Enanta Pharmaceuticals, Inc., priority 2014, dated 2019)
